Measurements as given in article PMC8666671, “Fine-tuning spermidine binding modes in the putrescine binding protein PotF” (The Journal of Biological Chemistry, 2021).
Numbering of substitutions follows the chain as printed. Values joined by “and” are separate entries in the source; they are usually repeats but may differ in a detail not shown here. Equal values may be shown once. Read-outs that look alike come from different tables or passages of the source.

Legend:
Assay type in all cases: binding
PotF_Dist = target: T1, PotF_Dist (Escherichia coli, UniProt P31133, A182D/L348Q/S87Y); assay: ITC, PotF_Dist (S87Y, A182D, L348Q); conditions: 293 K
T1 construct: without the N-terminal signal peptide; made in house; host or cells: E. coli BL21 (DE3)
T1 sequence (P31133 27-370 S87Y/A182D/L348Q): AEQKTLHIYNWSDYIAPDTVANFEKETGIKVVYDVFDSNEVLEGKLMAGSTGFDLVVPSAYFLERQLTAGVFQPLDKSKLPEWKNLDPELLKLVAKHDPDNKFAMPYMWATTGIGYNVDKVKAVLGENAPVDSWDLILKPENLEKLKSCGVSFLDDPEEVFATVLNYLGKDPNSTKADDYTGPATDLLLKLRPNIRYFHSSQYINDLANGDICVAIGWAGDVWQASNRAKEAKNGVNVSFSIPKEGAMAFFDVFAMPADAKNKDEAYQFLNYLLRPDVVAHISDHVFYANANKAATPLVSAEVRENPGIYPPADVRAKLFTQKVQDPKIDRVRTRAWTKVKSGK
Protocol: (§1) Ligands were always freshly prepared in the exact same buffer as was used for the size exclusion run. Samples were degassed, and temperature was equilibrated using a degassing station (TA Instruments). About 400 μl protein sample of different concentrations (Table S5) depending on affinity was transferred into the sample cell of a nanoITC (TA Instruments), and 50 μl of about tenfold concentrated ligand solution was loaded into the injection needle. Multiple injection measurements were carried out at 293 K, 300 rpm stirring rate, and 250 s spacings between each 2 μl injection. The heat quantity past injection was determined by integration of the measured peaks. Every protein–ligand combination was measured as biological triplicate. Subtraction of heat of dilution measurements, peak integration, and one site binding fits were done with NanoAnalyze (TA Instruments). Reported errors are the errors between fits of the measured triplicates.

PotF/D–E39D–F88A–S247D = target: T2, PotF/D–E39D–F88A–S247D (Escherichia coli, UniProt P31133, A182D/F276W/F88A/L348Q/S38T/S87Y); assay: ITC, PotF/D–E39D–F88A–S247D; conditions: 293 K; for n: ITC binding stoichiometry; for ΔG / ΔH / −TΔS / Kd: ITC; for Kd: 50 mM Tris pH 8, 300 mM NaCl, biological triplicates
T2 construct: without the N-terminal signal peptide; made in house; host or cells: E. coli BL21 (DE3)
T2 sequence (P31133 27-370 S38T/S87Y/F88A/A182D/F276W/L348Q): T1 sequence (P31133 27-370 S87Y/A182D/L348Q) with S12T, F62A, F250W
Protocol: as §1

PotF_Abox_Dist = target: T3, PotF_Abox_Dist (Escherichia coli, UniProt P31133, A182D/F276W/L348Q/S87Y); assay: ITC, PotF_Abox_Dist (S87Y, A182D, L348Q, F276W); conditions: 293 K
T3 construct: without the N-terminal signal peptide; made in house; host or cells: E. coli BL21 (DE3)
T3 sequence (P31133 27-370 S87Y/A182D/F276W/L348Q): T1 sequence (P31133 27-370 S87Y/A182D/L348Q) with F250W
Protocol: as §1

[1] = target: T4, PotF/D–E39D–Y87S–F88Y–S247D (Escherichia coli, UniProt P31133, A182D/F276W/F88Y/L348Q/S38T); assay: ITC, PotF/D–E39D–Y87S–F88Y–S247D; conditions: 293 K; for n: ITC binding stoichiometry; for ΔG / ΔH / −TΔS / Kd: ITC
T4 construct: without the N-terminal signal peptide; made in house; host or cells: E. coli BL21 (DE3)
T4 sequence (P31133 27-370 S38T/F88Y/A182D/F276W/L348Q): T1 sequence (P31133 27-370 S87Y/A182D/L348Q) with S12T, Y61S, F62Y, F250W
Protocol: as §1

PotF_Abox-L348Q = target: T5, PotF_Abox-L348Q (Escherichia coli, UniProt P31133, F276W/L348Q); assay: ITC, PotF_Abox-L348Q (F276W, L348Q); conditions: 293 K; for n: ITC binding stoichiometry; for ΔG / ΔH / −TΔS / Kd: ITC; for Kd: 50 mM Tris pH 8, 300 mM NaCl, biological triplicates
T5 construct: without the N-terminal signal peptide; made in house; host or cells: E. coli BL21 (DE3)
T5 sequence (P31133 27-370 F276W/L348Q): T1 sequence (P31133 27-370 S87Y/A182D/L348Q) with Y61S, D156A, F250W
Protocol: as §1

[2] = ITC, 50 mM Tris pH 8, 300 mM NaCl, biological triplicates

| SMILES | KD (PotF_Dist; [2]) | n (PotF/D–E39D–F88A–S247D) | ΔG (PotF/D–E39D–F88A–S247D) [kJ/mol] | ΔH (PotF/D–E39D–F88A–S247D) [kJ/mol] | −TΔS (PotF/D–E39D–F88A–S247D) [kJ/mol] | Kd (PotF/D–E39D–F88A–S247D) [µM] | n [1] | ΔG [1] [kJ/mol] | ΔH [1] [kJ/mol] | −TΔS [1] [kJ/mol] | n (PotF_Abox-L348Q) | ΔG (PotF_Abox-L348Q) [kJ/mol] | ΔH (PotF_Abox-L348Q) [kJ/mol] | −TΔS (PotF_Abox-L348Q) [kJ/mol] | Kd (PotF_Abox-L348Q) | other results |
| --- | --- | --- | --- | --- | --- | --- | --- | --- | --- | --- | --- | --- | --- | --- | --- | --- |
| NCCCCN [PUT, putrescine] | abolishes association | 0.92 ± 0.04 | -21.9 ± 0.084 | -21.8 ± 0.586 | -0.084 ± 0.628 | 126 ± 5.29 | 0.90 ± 0.01 | -23.1 ± 0.084 | -17.4 ± 0.21 | -5.69 ± 0.21 | 0.94 ± 0.03 | -31.3 ± 0.084 | -59.5 ± 3.14 | 28.2 ± 3.1 | ~3.3 µM and 2.66 µM | KD (PotF_Abox_Dist; [2]): not detectable; Kd ([1]; 50 mM Tris pH 8, 300 mM NaCl, biological triplicates, read-out: KD): 77.9 ± 3.17 µM |
| NCCCCNCCCN [SPD, spermidine] | very low | 0.91 ± 0.01 | -32.7 ± 0.25 | -19.9 ± 0.38 | -12.8 ± 0.586 | 1.48 ± 0.14 | 0.91 ± 0.02 | -34.2 ± 0.711 | -22.8 ± 0.33 | -11.3 ± 0.669 | 0.98 ± 0.01 | -32.8 ± 2.85 | -32.3 ± 0.13 | -0.46 ± 2.89 | ~2.6 µM and 3.26 µM | n (PotF_Dist; ITC binding stoichiometry): 0.91 ± 0.02; ΔG (PotF_Dist; ITC): -22.9 ± 0.837 kJ/mol; ΔH (PotF_Dist; ITC): -7.66 ± 0.33 kJ/mol; −TΔS (PotF_Dist; ITC): -15.3 ± 1.17 kJ/mol; Kd (PotF_Dist; [2]): 88.2 ± 33.1 µM; n (PotF_Abox_Dist; ITC binding stoichiometry): 0.94 ± 0.00; ΔG (PotF_Abox_Dist; ITC): -28.7 ± 0.084 kJ/mol; ΔH (PotF_Abox_Dist; ITC): -22.1 ± 0.29 kJ/mol; −TΔS (PotF_Abox_Dist; ITC): -6.57 ± 0.38 kJ/mol; Kd (PotF_Abox_Dist; [2]): ~7.8 µM and 7.8 µM and 7.77 µM; Kd ([1]; read-out: SPD affinity (KD)): 0.84 µM |
